How the values were obtained:
Serum cytokine profiling = type: in vivo, mice; details: four hours after 3 mg/kg IV bolus (total siRNA)
Description: (§1) Post-sacrifice, cardiac sticks were immediately performed on animals that had been dosed with either 304O13 or C12-200 lipid nanoparticles. Blood was centrifuged in serum separator tubes at 5,000 rpm for 10 minutes, and serum was analyzed for various hematological parameters. Serum chemistry was evaluated on a Beckman Olympus AU400 Serum Chemistry Analyzer. Cytokines were analyzed using Bio-Plex Pro Mouse Cytokine 23-Plex Assay kits (Luminex Corporation, Austin, Tex.) on the Bio-Plex 200 system, according to manufacturer instructions.
Cytokine analysis was done by injecting either 304O13 or C12-200 nanoparticles at an siRNA dose of 3 mg/kg. Four hours post-injection, blood was harvested via cardiac stick and serum was isolated. Cytokine levels were quantified using an ELISA assay.
A preliminary safety assessment was conducted on the lead LNP, 304O13, and it was compared to another previously-discovered LNP formulation, C12-200 (Love, K. T. et al. Lipid-like materials for low-dose, in vivo gene silencing. PNAS 107, 1864-1869 (2010)). […] Serum cytokine levels for both materials were assessed in mice four hours after a 3 mg/kg IV bolus injection (total siRNA). […] Clinical chemistry parameters were evaluated for both materials 72 hours after a single dose of 3 mg/kg and after four once weekly doses of 3 mg/kg each.

Serum clinical chemistry = type: in vivo, mice; details: 72 hours after single 3 mg/kg dose or four once weekly 3 mg/kg doses
Description: The mice had been injected with either a single 3 mg/kg dose of total siRNA or four 3 mg/kg doses (1× per week for four weeks). Blood was drawn for analysis 72 hours post-final injection. There were no statistically significant changes in any of the clinical chemistry parameters for any of the treated groups compared to controls (as evaluated by a student t-test). Error bars represent standard deviation (n=3-5).
as §1
A preliminary safety assessment was conducted on the lead LNP, 304O13, and it was compared to another previously-discovered LNP formulation, C12-200 (Love, K. T. et al. Lipid-like materials for low-dose, in vivo gene silencing. PNAS 107, 1864-1869 (2010)). […] Serum cytokine levels for both materials were assessed in mice four hours after a 3 mg/kg IV bolus injection (total siRNA). […]

[1] = Histology (H&E) of liver, spleen, kidneys and pancreas; type: in vivo, mice; details: for dose at which liver necrosis was observed: single-dose studies (0-10 mg/kg)
Description: Organs were harvested from animals that had received various doses of either 304O13 or C12-200 lipid nanoparticles (C12-200 is a control non-degradable lipidoid shown below). Organs were fixed overnight in 4% paraformaldehyde and transferred to 70% ethanol prior to paraffin embedding, sectioning, and H & E staining.
Histological analysis was performed through H&E staining on sections from the liver, spleen, kidneys and pancreas. […] Pancreatic inflammation and islet cell enlargement were detected at C12-200 doses ≧2 mg/kg. […] Multi-dose studies were also conducted in which mice received four injections of 0.3, 1, 2, 3, or 5 mg/kg, once per week for four weeks. […] There was no sign of liver toxicity in any of the 304O13 groups up to 5 mg/kg.

[2] = test system: HeLa cells stably modified to express both firefly and Renilla luciferase; test: In vitro transfection of HeLa cells with lipid nanoparticles (firefly luciferase silencing); type: cell-based; details: 40 nM anti-firefly luciferase siRNA formulated with lipidoid; firefly normalized to Renilla; crude lipidoids
Factor VII = test: In vivo Factor VII gene silencing in mouse hepatocytes; parameters: species or system mice; details: for Relative FVII Activity: tail vein, serum two days post-injection
CD45 = test: In vivo CD45 silencing in leukocyte populations; details: peritoneal cavity and spleen, three days post intravenous delivery
[3] = Nanoparticle characterization; type: physicochemical
Lipidoid hydrolysis = type: physicochemical; details: 6 N HCl reflux 24 h; KOH in EtOH/H2O reflux 41 h
Description: To a 25 ml round bottom flask was added 304O13 (0.250 g, 0.263 mmol, 1 equiv). For acidic hydrolysis, 10 ml of a solution of 6 N HCl was added to the flask to afford a cloudy heterogeneous solution. The reaction was heated to reflux to afford a clear, homogeneous solution and was stirred at reflux for 24 hours. For basic hydrolysis, 10 ml of a solution of KOH in EtOH/H2O (solution=5.61 g KOH in 47.5 ml EtOH w/2.5 ml distilled H2O) was added to the flask to afford a clear colorless solution. The reaction was heated to reflux and stirred for 41 h. […] Reactions were concentrated to dryness under reduced pressure and diluted with CDCl3. The basic reaction was filtered to remove excess KOH. Proton NMR analysis was performed in CDCl3. Proton nuclear magnetic resonance spectra were recorded with a Bruker Avance 400 spectrometer, are depicted in parts per million on the δ scale, and are referenced from the residual protium in the NMR solvent (CDCl3: δ 7.26 (CHCl3).
The acrylate-based lipidoids provided herein also contain hydrolysable ester moieties, functional groups which are commonly incorporated into delivery vehicles to promote physiological degradation (Staubli, A., Ron, E. & Langer, R. J. Am. Chem. Soc. 112, 4419-4424 (1990); van Dijkhuizen-Radersma, et al. Biomaterials 23, 4719-4729 (2002); Geng, Y. & Discher, D. E. J. Am. Chem. Soc. 127, 12780-12781 (2005)).

[4] = Biodistribution of Cy5.5-labeled siRNA (IVIS, Odyssey, confocal); details: liver harvested one hour post-injection
[5] = multi-dose, four injections once per week for four weeks

CCCCCCCCCCC(O)CN(CCN1CCN(CCN(CC(O)CCCCCCCCCC)CC(O)CCCCCCCCCC)CC1)CCN(CC(O)CCCCCCCCCC)CC(O)CCCCCCCCCC (stereo not shown) [Lipidoid C12-200, reference compound]
serum IL-6, IP-10, KC and MCP-1 levels vs PBS control and 304O13 groups (Serum cytokine profiling): elevated
albumin, ALT, AST, ALP, total bilirubin, GGT (Serum clinical chemistry): no toxicologically significant increases
doses at which liver necrosis and inflammation were observed [1, 5]: ≥ 1 mg/kg
doses at which pancreatic inflammation and islet cell enlargement were detected ([1]; single-dose studies): ≥ 2 mg/kg
dose at which liver necrosis was observed [1]: 7.5 mg/kg

CCCCCCCCCCCCOC(=O)CCN(CCC(=O)OCCCCCCCCCCCC)CC1(C)CC(N(CCC(=O)OCCCCCCCCCCCC)CCC(=O)OCCCCCCCCCCCC)CC(C)(C)C1 (stereo not shown) [Lipidoid 315O12]
Relative Luciferase Activity [2]: 0.30
Relative FVII Activity (Factor VII; 5 mg/kg siRNA): 0.99
CD45 silencing in immune cells (CD45): modest CD45 silencing

CCCCCCCCCCCCCOC(=O)CCN(C)CCCN(CC)CCCN(C)CCC(=O)OCCCCCCCCCCCCC [Lipidoid 218O13]
Relative Luciferase Activity [2]: 0.41
Relative FVII Activity (Factor VII; 5 mg/kg siRNA): 0.73

CCCCCCCCCCCCCOC(=O)CCN(CCC(=O)OCCCCCCCCCCCCC)CCN(C)CCCN(C)CCN(CCC(=O)OCCCCCCCCCCCCC)CCC(=O)OCCCCCCCCCCCCC [Lipidoid 503O13]
Relative Luciferase Activity [2]: 0.07
FVII knockdown with control (non-targeting) siRNA (Factor VII; LNP encapsulating control siRNA): did not result in FVII knockdown

CCCCCCCCCCCCOC(=O)CCN(CCC(=O)OCCCCCCCCCCCC)C[C@@H]1CCCN1CCC(=O)OCCCCCCCCCCCC [Lipidoid 154O12]
Relative Luciferase Activity [2]: 0.33
Relative FVII Activity (Factor VII; 5 mg/kg siRNA): 0.99

CCCCCCCCCCCCCCOC(=O)CCN(CCC(=O)OCCCCCCCCCCCCCC)CCC1CCN(CCC(=O)OCCCCCCCCCCCCCC)CC1 [Lipidoid 205O14]
Relative Luciferase Activity [2]: 0.43
Relative FVII Activity (Factor VII; 5 mg/kg siRNA): 0.83

CCCCCCCCCCCCCOC(=O)CCN(CCC(=O)OCCCCCCCCCCCCC)CC1CCCN1C (stereo not shown) [Lipidoid 232O13]
Relative Luciferase Activity [2]: 0.39

CCCCCCCCCCCCCCOC(=O)CCN(CCC(=O)OCCCCCCCCCCCCCC)[C@@H](CO)[C@H](C)O [Lipidoid 196O14]
Relative Luciferase Activity [2]: 0.38
Relative FVII Activity (Factor VII; 5 mg/kg siRNA): 0.82

CCCCCCCCCCCCCOC(=O)CCN(C)CCN(CCN(C)CCC(=O)OCCCCCCCCCCCCC)CCN(C)CCC(=O)OCCCCCCCCCCCCC [Lipidoid 304O13]
Relative Luciferase Activity [2]: 0.08
Relative FVII Activity (Factor VII; 0.1 mg/kg siRNA): 0.54
Relative FVII Activity (Factor VII; 0.5 mg/kg siRNA): 0.23
Relative FVII Activity (Factor VII; 2 mg/kg siRNA): 0.02
Relative FVII Activity (Factor VII; 5 mg/kg siRNA): 0.01
time for Factor VII levels to return to baseline (Factor VII; optimized 304O13, single injection at 0.1 mg/kg): ≤ 18 days
siRNA Entrapment ([3]; lipid nanoparticle, RiboGreen RNA assay): 84.2%
Diameter ([3]; lipid nanoparticle, average effective diameter): 86.0 nm
Zeta Potential ([3]; lipid nanoparticle, neutral pH): 13.7 mV
pKa ([3]; nanoparticle surface, TNS assay): 6.8
albumin, ALT, AST, ALP, total bilirubin, GGT (Serum clinical chemistry): no toxicologically significant increases
doses with no sign of liver toxicity [1, 5]: up to 5 mg/kg
dose at which a small amount of apoptosis in splenic red pulp was observed ([1]; single-dose studies): 10 mg/kg
dose at which liver necrosis was observed [1]: 10 mg/kg
degradation under hydrolytic conditions (1H NMR, TLC) (Lipidoid hydrolysis): degraded to the anticipated alkyl-alcohol product
CD45 silencing in immune cells (CD45): most robust CD45 silencing
siRNA distribution within liver (confocal microscopy) [4]: siRNA accumulation throughout nearly all hepatocellular tissue

CCCCCCCCCCCCCOC(=O)CCN(CCC(=O)OCCCCCCCCCCCCC)CCN(CCC(=O)OCCCCCCCCCCCCC)CCN(CC)CC [Lipidoid 123O13]
Relative Luciferase Activity [2]: 0.22
Relative FVII Activity (Factor VII; 0.1 mg/kg siRNA): 0.86
Relative FVII Activity (Factor VII; 0.5 mg/kg siRNA): 0.50
Relative FVII Activity (Factor VII; 2 mg/kg siRNA): 0.00
Relative FVII Activity (Factor VII; 5 mg/kg siRNA): 0.00

CCCCCCCCCCCCCOC(=O)CCN(CCC(=O)OCCCCCCCCCCCCC)CC1CCCN(C)C1 (stereo not shown) [Lipidoid 235O13]
Relative Luciferase Activity [2]: 0.42
Relative FVII Activity (Factor VII; 5 mg/kg siRNA): 0.39

Reference: US9439968B2, “Amine-containing lipidoids and uses thereof” (Massachusetts Institute of Technology, priority 2012, dated 2016)
